Source: patent US10703748B2, “Diazanaphthalen-3-yl carboxamides and preparation and use thereof” (Samumed, LLC, priority 2017, dated 2020)
pEC50: −log10 of the molar value.

Legend:
DYRK1A kinase = DYRK1A kinase (Homo sapiens, UniProt Q13627); assay: DYRK1A kinase activity (Ser/Thr 18 peptide Z-lyte FRET assay); assay type: biochemical; details: recombinant DYRK1A, 30 μM ATP, one hour at room temperature;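 also: kinase activity read as coumarin/fluorescein emission ratio after development step, with unphosphorylated and phosphorylated peptide forms setting 0% and 100% controls, values from dose-response curves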
[1] = system: SW480 colon carcinoma cells; assay: Cell viability assay (CellTiter-Glo); details: Homo sapiens; for pEC50: SW480, 96 h; for inhibition at 10 µM: SW480, read-out: percent inhibition at 10 μM
[2] = system: Tau phosphorylation at Threonine 212 (pT212Tau); assay: Tau phosphorylation at Threonine 212 (pT212Tau) in Dyrk1a- and MAPT-overexpressing HEK293T cells, sandwich ELISA; assay type: cell-based; details: Homo sapiens, HEK-293T, overnight (16-18 hours), read-out: Thr212 EC50
Experimental: HEK293T cells (transfectable human embryonic kidney cells) were cultured in DMEM medium supplemented with 10% FBS and 1% penicillin/streptomycin.
HEK293T cells were transiently transfected to overexpress Dyrk1a and microtubule-associated protein Tau (MAPT) genes. Specifically, Dyrk1a and MAPT expression vectors were obtained from OriGene (10 μg of each, catalog numbers SC314641 and RC216166, respectively). A MaxiPrep for each vector was ordered and received from GeneWiz, yielding 874.5 μg (resuspended at […]) of the Dyrk1a expression vector, and 898 μg (resuspended at […]) of MAPT.
HEK293T cells were seeded at 1.0×10^7 cells in 10 mL per T-75 flask. […] One T-75 flask was designated as a no-vector negative control for pT212Tau signal.
After 4-6 hours of incubation in transfection reagents, transiently double transfected HEK293T cells were dissociated by treatment with trypsin EDTA and seeded at 1.0×10^5 cells in 100 μL per well in 96-well plates. No-vector negative controls were seeded in separate 96-well plates to avoid the risk of the negative control cells picking up the overexpression during incubation. At the time of seeding, DMSO-resuspended Samumed compounds were dispensed to eight wells as a serial dilution from 10 μM to 4.6 nM final concentration in medium, or at 0.12 μM to 0.05 nM with particularly potent compounds. Cells were exposed to the representative compounds overnight (16-18 hours) in a 37° C. incubator.
96-Well flat-bottom plates were coated with 100 μL per well anti-HT7 capture antibody (ThermoFisher, MN1000) diluted 1:300 in 1×PBS at 4° C. overnight, with shaking at 500 rpm. After overnight capture antibody incubation, coated plates were washed four times with 200 μL per well of 1×PBS-0.05% Tween-20, and blocked for 1 hour with 200 μL per well of 1×PBS with 2% BSA. After 1 hour of blocking, plates were washed four times with 200 μL per well of 1×PBS-0.05% Tween-20, prior to sample loading.
Wells of compound-treated cells were visually checked for cell death before being washed with 200 μL per well of 1×DPBS supplemented with phosphatase inhibitor diluted to 1×. Cells were then lysed with 100 μL 1×RIPA buffer supplemented with phosphatase and protease inhibitors (each diluted to a final 1×). Cells were shaken at 500 rpm, 4° C. for 20 minutes prior to further lysis (via manual scraping) and transfer to 96-well V-bottom collection plates (Corning, 3894). V-bottom plates were centrifuged at 4000 rpm, 4° C., for 15 minutes, and 100 μL of lysate supernatant from each well was directly tested for pT212Tau signal by sandwich ELISA.
Specifically, lysates were directly transferred to the coated and blocked ELISA plates for 2 hours before plates were washed four times with 200 μL per well of 1×PBS-0.05% Tween-20 and probed with 100 μL per well of anti-pT212Tau antibody (ThermoFisher, 44-740G) diluted 1:200 in 1×PBS for 2 hours. Plates were washed four times with 200 μL per well of 1×PBS-0.05% Tween-20 and probed with 100 μL per well of anti-rabbit/HRP conjugate (Cell Signaling Technology, 7074S) diluted 1:600 in 1×PBS for 1 hour. Plates were washed four times with 200 μL per well of 1×PBS-0.05% Tween-20 before 100 μL per well of TMB substrate solution (ThermoFisher, N301) was added. When colour development was observed, 100 μL per well of stop solution (ThermoFisher, N600) was added, and colorimetric detection of pT212Tau signal was read at 450 nm with the Cytation 3 Cell Imaging Multi-Mode Reader (BioTek). The signal was used to plot, draw the curves fitting, and determine the EC50 values in GraphPad Prism for tested representative compounds.

[3] = system: Wnt-responsive Sp5-Luc reporter in SW480 colon carcinoma cells; assay: Screening assay for Wnt activity (Sp5-Luc reporter gene assay); details: Homo sapiens; for pEC50: SW480; for inhibition at 10 µM: SW480, read-out: percent inhibition at 10 μM
IL-6 = IL-6 inhibition in LPS-stimulated human peripheral blood mononuclear cells (HTRF); details: Homo sapiens, PBMC; for pEC50: 22 h; for inhibition at 10 µM: read-out: percentage in parentheses after EC50 >10
GSK3β kinase = GSK3β kinase (Homo sapiens, UniProt P49841); assay: GSK3β kinase activity (Ser/Thr 09 peptide Z-lyte FRET assay); assay type: biochemical; details: recombinant kinase, 46 μM ATP, one hour at room temperature; read-out: EC50
Experimental: Each compound is dissolved in DMSO as a 10 mM stock and used to prepare compound source plates. Serial dilution (1:3, 11-point dose-response curves from 10 μM to 0.0003 μM) and compound transfer was performed using the ECHO 550 (Labcyte, Sunnyvale, Calif.) into 1536-well black-walled round bottom plates (Corning).
This is a non-radioactive assay using fluorescence resonance energy transfer (FRET) between coumarin and fluorescein to detect kinase activity which is represented as ratio of coumarin emission/fluorescein emission.
The mixture is allowed to incubate with the representative compounds for one hour at room temperature. All reactions were performed in duplicate. Unphosphorylated (“0% Control”) and phosphorylated (“100% control”) forms of Ser/Thr 18 serve as control reactions.
After incubation, diluted Development Buffer is added to the reaction and allowed to further incubate for one hour at room temperature.
Dose-response curves are generated and inhibitory concentration (IC50) values are calculated using non-linear regression curve fit in the Dotmatics' Studies Software (Bishops Stortford, UK).

[4] = system: α-smooth muscle actin (aSMA) positive LL29 cells; assay: Inhibition of the fibrotic process: αSMA staining in TGF-β1 treated LL29 fibroblasts from IPF patients; details: Homo sapiens, Fibroblast; for pEC50: 96 h; for inhibition at 10 µM: read-out: percentage in parentheses after EC50 >10
Experimental: Each compound was dissolved in DMSO as a 10 mM stock and used to prepare compound source plates. […] LL29 cells were plated at 1,500 cells/well in 70 μL/well F12 medium supplemented with 1% Fetal Bovine Serum. […] Wells treated with TGF-β1 and containing DMSO were used as positive control, and cells with only DMSO were negative control. Cells were incubated at 37° C. and 5% CO2 for 4 days. Following incubation for 4 days, SYTOX green nucleic acid stain (Life Technologies [Thermo Fisher Scientific]) was added to the wells at a final concentration of 1 μM and incubated at room temperature for 30 min. Cells were then fixed using 4% formaldehyde (Electron Microscopy Sciences), washed 3 times with PBS followed by blocking and permeabilization using 3% Bovine Serum Albumin (BSA; Sigma) and 0.3% Triton X-100 (Sigma) in PBS.

[5] = system: secreted cytokines TNFα, IL-6 and KC-GRO; assay: Secreted cytokines in Lipopolysaccharide-stimulated BV-2 cells (Table 9 does not say which cytokine); assay type: cell-based, mouse; details: Mus musculus, BV-2, 5 h; read-out: EC50
[6] = system: Tau phosphorylation at Ser396 (pSer396); assay: Tau phosphorylation at Ser396 (pSer396) in SH-SY5Y cells, ELISA / western blot; assay type: cell-based, human; details: Homo sapiens; SH-SY5Y cells, overnight (16-18 h); read-out: pSer396 Tau EC50;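 also: decrease in pSer396 Tau measured in lysates of treated cells by colorimetric ELISA or chemiluminescent western blot, same pSer396 antibody for both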
Experimental: Two days before treatment, cells were seeded onto 96 well plates at 5×10^4 cells/well.
The above synthesized compounds were screened using the cell assay procedure to assess decrease Tau phosphorylation at Ser396 (pSer396) described below.
Cells were lysed with RIPA buffer complemented with phosphatase and protease inhibitors then lysates were spun down at 12,000 g for 10 min to remove any cellular debris.

Chain of GSK3β kinase (P49841 whole entry): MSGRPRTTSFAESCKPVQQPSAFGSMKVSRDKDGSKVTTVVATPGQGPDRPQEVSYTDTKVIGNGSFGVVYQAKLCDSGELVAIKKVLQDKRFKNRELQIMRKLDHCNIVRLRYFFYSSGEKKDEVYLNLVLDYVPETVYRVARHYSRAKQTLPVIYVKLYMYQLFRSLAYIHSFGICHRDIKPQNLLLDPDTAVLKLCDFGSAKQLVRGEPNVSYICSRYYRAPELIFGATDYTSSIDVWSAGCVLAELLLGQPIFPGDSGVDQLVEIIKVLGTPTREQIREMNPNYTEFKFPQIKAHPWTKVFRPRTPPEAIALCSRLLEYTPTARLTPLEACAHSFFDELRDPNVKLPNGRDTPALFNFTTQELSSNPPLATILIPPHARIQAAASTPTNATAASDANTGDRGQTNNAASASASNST

Row | Structure (SMILES) | pEC50 (DYRK1A kinase) | pEC50 [1] | inhibition at 10 µM [1] | pEC50 [2] | pEC50 [3] | inhibition at 10 µM [3] | pEC50 (IL-6) | inhibition at 10 µM (IL-6) | pEC50 (GSK3β kinase) | pEC50 [4] | inhibition at 10 µM [4] | pEC50 [5] | pEC50 [6]
1 | Cc1nnc(-c2ccc3cnc(NC(=O)CN4C5CCC4CC5)nc3c2)s1 [Compound 1632, 2-(7-Azabicyclo[2.2.1]heptan-7-yl)-N-(7-(5-methyl-1,3,4-thiadiazol-2-yl)quinazolin-2-yl)acetamide] | 6.30 | < 5.00 | 21.3% | 6.40 | < 5.00 | 19.2% | < 5.00 | 4.2% | 6.03 | < 5.00 | 28.8% |  | 
2 | Cn1ncc(-c2ccc3cnc(NC(=O)C4CC5(C4)CN(CCF)C5)cc3n2)c1CN1CCCCC1 [Compound 280, 2-(2-Fluoroethyl)-N-(2-(1-methyl-5-(piperidin-1-ylmethyl)-1H-pyrazol-4-yl)-1,6-naphthyridin-7-yl)-2-azaspiro[3.3]heptane-6-carboxamide] | 6.82 | 5.62 |  | 7.49 | < 5.00 | 33.7% | 5.24 |  | 6.47 | 5.60 |  |  | 
3 | Cn1cc(-c2ccc3cnc(NC(=O)CC4CNCCO4)nc3c2)cn1 (stereo not shown) [Compound 994, N-(7-(1-Methyl-1H-pyrazol-4-yl)quinazolin-2-yl)-2-(morpholin-2-yl)acetamide] | 7.82 | < 5.00 | 24.8% |  | < 5.00 | 11.5% | 5.08 |  | 6.11 | < 5.00 | 0% | 5.89 | < 5.00
4 | Cn1cc(-c2ccc3cnc(NC(=O)C4CCN(Cc5ncccn5)CC4)cc3n2)cn1 [Compound 99, N-(2-(1-Methyl-1H-pyrazol-4-yl)-1,6-naphthyridin-7-yl)-1-(pyrimidin-2-ylmethyl)piperidine-4-carboxamide] | 8.05 | < 5.00 | 37% |  | 5.88 |  | 5.07 |  | 6.74 | 5.39 |  | 6.75 | 6.01
5 | C[C@H]1CCCN1CC(=O)Nc1cc2cc(-c3cnn(C)c3)ncc2cn1 [Compound 3674, (S)—N-(6-(1-Methyl-1H-pyrazol-4-yl)-2,7-naphthyridin-3-yl)-2-(2-methylpyrrolidin-1-yl)acetamide] | 8.15 | 5.16 |  |  | 6.29 |  | < 5.00 | 1.7% | 7.68 | 6.22 |  | 5.17 | 6.72
6 | Cn1cncc1-c1ccc2cnc(NC(=O)c3ccc(F)cc3)nc2c1 [Compound 1354, 4-Fluoro-N-(7-(1-methyl-1H-imidazol-5-yl)quinazolin-2-yl)benzamide] | 8.70 | 5.27 |  | 8.22 | 5.62 |  | < 5.00 | 39.9% | 5.93 | 5.29 |  |  | 
7 | CN1CCCN(CC(=O)Nc2cc3cc(-c4cnn(C)c4)ncc3cn2)CC1 [Compound 3733, 2-(4-Methyl-1,4-diazepan-1-yl)-N-(6-(1-methyl-1H-pyrazol-4-yl)-2,7-naphthyridin-3-yl)acetamide] | 7.80 | < 5.00 | 37.3% |  | 6.29 |  | < 5.00 | 6.2% | 7.37 | 5.74 |  | 5.43 | 6.64
8 | CN1CCN(c2ncc(C(=O)Nc3cc4cc(-c5cnn(C)c5)ncc4cn3)s2)CC1 [Compound 4632, N-(6-(1-methyl-1H-pyrazol-4-yl)-2,7-naphthyridin-3-yl)-2-(4-methylpiperazin-1-yl)thiazole-5-carboxamide] | 8.30 | < 5.00 | 40.9% |  | 6.04 |  | < 5.00 | 6.8% | 6.49 | < 5.00 | 35.5% | 6.15 | 5.10
9 | CN1CCC(Nc2cc(C(=O)Nc3ncc4ccc(-c5cnn(C)c5)cc4n3)ccn2)CC1 [Compound 4569, N-(7-(1-Methyl-1H-pyrazol-4-yl)quinazolin-2-yl)-2-((1-methylpiperidin-4-yl)amino)isonicotinamide] | 8.10 | 5.65 |  | 6.62 | 6.24 |  | < 5.00 | 42.3% | < 5.00 | 5.39 |  |  | 
10 | Cn1cc(-c2ccc3cnc(NC(=O)C4CCN(S(C)(=O)=O)CC4)cc3n2)cn1 [Compound 71, N-(2-(1-Methyl-1H-pyrazol-4-yl)-1,6-naphthyridin-7-yl)-1-(methylsulfonyl)piperidine-4-carboxamide] | 8.52 | < 5.00 | 40.7% |  | 6.25 |  | 5.26 |  | 7.74 | 6.38 |  | 7.03 | 6.37
11 | CC(C(=O)Nc1cc2cc(-c3cncn3C)ncc2cn1)N1CCCC1 (stereo not shown) [Compound 4041, N-(6-(1-Methyl-1H-imidazol-5-yl)-2,7-naphthyridin-3-yl)-2-(pyrrolidin-1-yl) propanamide] | 6.20 | 5.34 |  |  | 6.54 |  | < 5.00 | 0% | 7.72 | 5.46 |  | 5.41 | 6.99
12 | Cn1cncc1-c1cnc2cnc(NC(=O)C3CCC(F)(F)CC3)cc2c1 [Compound 3120, 4,4-Difluoro-N-(3-(1-methyl-1H-imidazol-5-yl)-1,7-naphthyridin-6-yl) cyclohexane-1-carboxamide] | 8.05 | < 5.00 | 21.4% |  | < 5.00 | 16.2% | < 5.00 | 7.4% | 5.88 | < 5.00 | 27% | 6.19 | 5.61
